Data published in patent US9756852B2, “Topical delivery formulation” (MERIAL INC., priority 2014, dated 2017).

Experiments:
[1] = In-lab water resistance (% ML465 removed after water exposure); format: physicochemical; settings: for In-lab Water Resistance (% ML465 Removed after Water Exposure (n = 2)): 30% Tributyl acetyl citrate
Method: (§1) In-vivo and in-vitro studies were conducted to compare wash-off resistance of formulations prepared with lipophilic solvents and with polymers.
The in-vivo studies of Table 1 were followed with in-vitro studies conducted to assess water resistance of “conventional” solvent systems. Conventional pour-on solvent formulations described below were tested using ML465 as the active under exposure to water for 20 and 40 minutes.
Next, the water resistance of the inventive solvent systems was tested in vitro.

horn fly = test: in-vivo efficacy studies A and B: pour-on formulations for control of horn fly on cows; parameters: species or system Haematobia irritans on cows; settings: 30% Tributyl acetyl citrate
Method: Although many different actives may work with the formulation of the invention, 1H-pyrazole-3-carbonitrile, 1-[2,6-dichloro-4-(trifluoromethyl)phenyl]-5-methyl-4-[(trifluoromethyl)sulfinyl] (i.e., ML465) is the compound used to test topical formulations for control of horn fly on cows for a duration of one month or longer.
as §1
It can be seen that the amount of ML465 washed off is at, or below, 10% of the applied dose, indicating a sharp decrease upon exposure to water. This was not sufficient to support thirty days efficacy duration. Thus, efficacy may depend on resistance of the solvent system to water exposure.

In the case of Cc1c([S+]([O-])C(F)(F)F)c(C#N)nn1-c1c(Cl)cc(C(F)(F)F)cc1Cl (stereo not shown) [ML465, 1H-pyrazole-3-carbonitrile, 1-[2,6-dichloro-4-(trifluoromethyl)phenyl]-5-methyl-4-[(trifluoromethyl)sulfinyl]], the “In-lab Water Resistance (% ML465 Removed after Water Exposure (n = 2))” value ([1]; 20 min, 5% PPG-15 stearyl ether, 6% Isobutene H25, Soybean Oil) is reported as 5.2%, the “In-lab Water Resistance (% ML465 Removed after Water Exposure (n = 2))” value ([1]; 20 min, 5% PPG-15 stearyl ether, 10% Isopropyl palmitate, 10% ceteary octanote, 10% butyl stearate, Soybean Oil) is reported as 8.8% and the “In-lab Water Resistance (% ML465 Removed after Water Exposure (n = 2))” value ([1]; 20 min, 5% PPG-15 stearyl ether, Soybean oil) is reported as 7.5%. For the same compound, the “In-lab Water Resistance (% ML465 Removed after Water Exposure (n = 2))” value ([1]; 20 min, Miglyol 840) was 2.4%, the “In-lab Water Resistance (% ML465 Removed after Water Exposure (n = 2))” value ([1]; 40 min, 5% PPG-15 stearyl ether, 6% Isobutene H25, Soybean Oil) was 7.3% and the “In-lab Water Resistance (% ML465 Removed after Water Exposure (n = 2))” value ([1]; 40 min, 5% PPG-15 stearyl ether, 10% Isopropyl palmitate, 10% ceteary octanote, 10% butyl stearate, Soybean Oil) was 9.2%. For the same compound, the “In-lab Water Resistance (% ML465 Removed after Water Exposure (n = 2))” value ([1]; 40 min, 5% PPG-15 stearyl ether, Soybean oil) was 10.1%, the “In-lab Water Resistance (% ML465 Removed after Water Exposure (n = 2))” value ([1]; 40 min, Miglyol 840) was 5.2% and the “amount of ML465 washed off, % of the applied dose” value ([1]; traditional formulations of trials A and B, exposure to water) was no more than 10%. The “Duration of above 90% efficacy” value (horn fly; study A, 3.0% w/v ML465, Miglyol 840) was 17 days, the “Duration of above 90% efficacy” value (horn fly; study B, 0.5% w/v ML465, 5% Polypropylene Glycol (15) stearyl ether, Soybean Oil) was 17 days and the “Duration of above 90% efficacy” value (horn fly; study B, 1.0% w/v ML465, 3% Polypropylene Glycol (15) stearyl ether, 8.5% Isopropyl palmitate, 7% Isobutene H25, Soybean Oil) was 17 days. The “Duration of above 90% efficacy” value (horn fly; study B, 1.0% w/v ML465, 3% Polypropylene Glycol (15) stearyl ether, 10% Isopropyl palmitate, 7% cetearyl octanoate, 10% butyl stearate, Soybean Oil) was 24 days.
